Results as given in patent publication US20170057955A1, “Pyridopyrimidinone Compounds for Modulating the Catalytic Activity of Histone Lysine Demethylases (KDMs)” (Dong-A Socio Holdings Co., Ltd., priority 2015, published 2017).

Target: T1, Recombinant human JARID1B/KDM5B (Homo sapiens, UniProt Q9UGL1)
T1 construct: purchased Active Motif 31432; host or cells: Sf9 insect cells
Test: LANCE Ultra TR-FRET JARID1B (KDM5B) demethylase inhibition assay
Assay type: biochemical
Settings: 0.1 uM of test-compounds, FLAG-JARID1B, 500 nM biotinylated H3K4me3 peptide substrate, 30 min at room temperature
Text: FLAG-tagged JARID1B (also known as KDM5B) protein was screened against 49 compounds. For this compound screening, LANCE Ultra time-resolved fluorescence resonance energy transfer (TR-FRET) assay was employed using a europoium (Eu)-labeled antibody that can specifically recognize mono- or dimethylated peptides (H3K4me2/1) and ULight-streptavidin (ULight-SA), a small molecule fluorescent dye. When irradiated at 340 nm, the energy from the Eu donor is transferred to the ULight acceptor dye which, in turn, emits light primarily at 665 nm. The ratio between the intensity of primary emission at 665 nm and that of secondary emission at […] was used to quantify the level of lysine methylation. As JARID1B removes more methyl moieties from tri-methylated substrate peptides (H3K4me3), the ratio increases until the enzyme reaction is terminated. In case, therefore, the compounds disrupt the enzymatic activity completely, the ratio becomes equal to a background value.
Recombinant human JARID1B/KDM5B (accession number NP_006609) of molecular weight 179.9 KDa was expressed in Sf9 insect cells and contains an N-terminal FLAG tag. The enzyme was obtained from Active Motif (Catalog No. 31432). The tri-methylated histone substrate peptide of purity greater than 95% was a synthetic peptide in which the first 21 amino acids correspond to the human histone H3 sequence with three extra amino acids and a biotin motif (GGK-biotin) linked to the C-terminus [sequence: ART-K(Me3)-QTARKSTGGKAPRKQLA-GGK-biotin-OH], (AnaSpec, Fremont, Calif. Catalog. No. ANA-1413). The reference inhibitor compound tranylcypromine (or trans-2-phenylcyclopropylamine hydrochloride, also known as, 2-PCPA) was purchased from Sigma (St. Louis, Mo. Cat. no. P8511). ULight-labeled streptavidin (ULight-SA, Catalog no. TRF0102), Eu-W1024-labeled anti-methyl-Histone H3 Lysine 4 (H3K4me1-2) Antibody (Catalog no. TRF0402), and LANCE detection buffer 10× (Catalog no. CR97-100) were obtained from PerkinElmer (Montreal, Quebec, Canada). The TR-FRET experiments were carried out in white, low-volume 384-wellplates purchased from PerkinElmer (ProxiPlate_-384 Plus, Catalog no. 6008280).
The TR-FRET signal was measured in the presence both of the bio-H3K4me3 peptide and FLAG-JARID1B by detecting any H3K4me2/1 peptide produced in the assay system. Assays using only the bio-H3K4me2 peptide were served as a positive control. Robust enzymatic progressions were observed by using JARID1B at concentrations ranging from 10 to 30 nM. In a typical TR-FRET experiment, JARID1B was pre-incubated with or without 0.1 uM of test-compounds (containing 1% DMSO final) for 5 min. The enzymatic reactions were initiated by the addition of 500 nM biotinylated H3K4me3 peptide substrate plus 500 uM of 2-OG 25 uM Fe(II) and 2 mM ascorbate. The reaction buffer also contained 50 mM Hepes (pH7.5), 0.01% (v/v) Tween 20, and 50 mM NaCl. The reaction mixture was incubated for 30 min at room temperature before reading on an EnVision plate reader (PerkinElmer, Waltham, Mass.).

T1 sequence (Q9UGL1 whole entry): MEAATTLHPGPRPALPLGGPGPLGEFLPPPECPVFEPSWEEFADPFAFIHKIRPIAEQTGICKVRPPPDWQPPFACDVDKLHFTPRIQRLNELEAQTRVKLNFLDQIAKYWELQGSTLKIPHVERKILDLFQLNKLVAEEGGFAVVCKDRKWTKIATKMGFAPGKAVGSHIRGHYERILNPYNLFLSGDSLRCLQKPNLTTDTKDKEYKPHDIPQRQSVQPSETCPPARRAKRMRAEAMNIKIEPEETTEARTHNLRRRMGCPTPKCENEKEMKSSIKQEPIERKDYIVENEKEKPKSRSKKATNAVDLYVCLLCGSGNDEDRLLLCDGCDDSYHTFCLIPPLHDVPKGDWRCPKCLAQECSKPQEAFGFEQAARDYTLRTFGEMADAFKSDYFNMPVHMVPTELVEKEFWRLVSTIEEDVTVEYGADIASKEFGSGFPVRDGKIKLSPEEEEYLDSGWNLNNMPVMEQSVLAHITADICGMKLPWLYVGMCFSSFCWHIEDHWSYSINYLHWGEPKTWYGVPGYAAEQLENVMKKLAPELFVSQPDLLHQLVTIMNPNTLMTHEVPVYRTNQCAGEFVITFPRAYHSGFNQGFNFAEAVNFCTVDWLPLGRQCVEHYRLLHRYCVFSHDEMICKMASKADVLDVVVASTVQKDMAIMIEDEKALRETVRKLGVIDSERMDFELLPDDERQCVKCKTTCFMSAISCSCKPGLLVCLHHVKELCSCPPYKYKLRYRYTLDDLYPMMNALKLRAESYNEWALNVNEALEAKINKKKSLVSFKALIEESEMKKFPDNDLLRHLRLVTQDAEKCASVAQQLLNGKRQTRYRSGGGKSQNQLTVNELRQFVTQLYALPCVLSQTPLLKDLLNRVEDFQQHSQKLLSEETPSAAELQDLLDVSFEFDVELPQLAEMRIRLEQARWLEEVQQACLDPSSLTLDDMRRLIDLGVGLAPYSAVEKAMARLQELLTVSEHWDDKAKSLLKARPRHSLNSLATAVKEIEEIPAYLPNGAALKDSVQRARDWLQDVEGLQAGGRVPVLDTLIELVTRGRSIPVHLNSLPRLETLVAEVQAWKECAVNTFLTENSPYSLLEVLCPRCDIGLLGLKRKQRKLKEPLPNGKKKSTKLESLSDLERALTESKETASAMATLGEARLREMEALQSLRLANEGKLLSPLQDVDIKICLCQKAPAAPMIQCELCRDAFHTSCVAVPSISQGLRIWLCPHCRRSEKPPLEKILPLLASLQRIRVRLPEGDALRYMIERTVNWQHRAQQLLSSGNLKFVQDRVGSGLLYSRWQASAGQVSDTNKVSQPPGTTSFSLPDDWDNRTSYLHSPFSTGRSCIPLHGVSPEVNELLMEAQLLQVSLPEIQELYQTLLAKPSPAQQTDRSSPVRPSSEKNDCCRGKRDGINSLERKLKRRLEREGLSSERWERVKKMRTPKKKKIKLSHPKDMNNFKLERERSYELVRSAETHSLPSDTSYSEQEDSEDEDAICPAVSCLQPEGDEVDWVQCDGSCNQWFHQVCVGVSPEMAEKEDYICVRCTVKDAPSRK

inhibition at 0.1 µM [%] | Compound
20 to 50 | CN1CCN(c2ccc(-c3cn(-c4nccc5c(=O)[nH]cnc45)nc3N)cc2)CC1 [Compound 17, 8-(3-amino-4-(4-(4-methylpiperazin-1-yl)phenyl)-1H-pyrazol-1-yl)pyrido[3,4-d]pyrimidin-4(3H)-one]
20 to 50 | CC(=O)Nc1ccc(-c2cn(-c3nccc4c(=O)[nH]cnc34)nc2N)cc1 [Compound 18, N-(4-(3-amino-1-(4-oxo-3,4-dihydropyrido[3,4-d]pyrimidin-8-yl)-1H-pyrazol-4-yl)phenyl)acetamide]
20 to 50 | Nc1nn(-c2nccc3c(=O)[nH]cnc23)cc1-c1ccc(CCCO)cc1 [Compound 19, 8-(3-amino-4-(4-(3-hydroxypropyl)phenyl)-1H-pyrazol-1-yl)pyrido[3,4-d]pyrimidin-4(3H)-one]
≥ 50 | Nc1nn(-c2nccc3c(=O)[nH]cnc23)cc1-c1cccc(N2CCNCC2)c1 [Compound 20, 8-(3-amino-4-(3-(piperazin-1-yl)phenyl)-1H-pyrazol-1-yl)pyrido[3,4-d]pyrimidin-4(3H)-one]
≥ 50 | Nc1nn(-c2nccc3c(=O)[nH]cnc23)cc1-c1ccc(C(=O)N2CCOCC2)cc1 [Compound 21, 8-(3-amino-4-(4-(morpholine-4-carbonyl)phenyl)-1H-pyrazol-1-yl)pyrido[3,4-d]pyrimidin-4(3H)-one]
≥ 50 | Nc1nn(-c2nccc3c(=O)[nH]cnc23)cc1-c1cnn(C2CCNCC2)c1 [Compound 22, 8-(3-amino-1′-(piperidin-4-yl)-1H,1′H-[4,4′-bipyrazol]-1-yl)pyrido[3,4-d]pyrimidin-4(3H)-one]
≥ 50 | Nc1nn(-c2nccc3c(=O)[nH]cnc23)cc1-c1ccc(F)cc1 [Compound 23, 8-(3-amino-4-(4-fluorophenyl)-1H-pyrazol-1-yl)pyrido[3,4-d]pyrimidin-4(3H)-one]
≥ 50 | CC(=O)c1ccc(-c2cn(-c3nccc4c(=O)[nH]cnc34)nc2N)cc1 [Compound 24, 8-(4-(4-acetylphenyl)-3-amino-1H-pyrazol-1-yl)pyrido[3,4-d]pyrimidin-4(3H)-one]
20 to 50 | Nc1nn(-c2nccc3c(=O)[nH]cnc23)cc1-c1ccc(O)cc1 [Compound 25, 8-(3-amino-4-(4-hydroxyphenyl)-1H-pyrazol-1-yl)pyrido[3,4-d]pyrimidin-4(3H)-one]
20 to 50 | Nc1nn(-c2nccc3c(=O)[nH]cnc23)cc1-c1cnn(CCO)c1 [Compound 26, 8-(3-amino-1′-(2-hydroxyethyl)-1H,1′H-[4,4′-bipyrazol]-1-yl)pyrido[3,4-d]pyrimidin-4(3H)-one]
20 to 50 | Nc1nn(-c2nccc3c(=O)[nH]cnc23)cc1-c1cnn(CCN2CCCC2)c1 [Compound 27, 8-(3-amino-1′-(2-(pyrrolidin-1-yl)ethyl)-1H,1′H-[4,4′-bipyrazol]-1-yl)pyrido[3,4-d]pyrimidin-4(3H)-one]
≥ 50 | Nc1nn(-c2nccc3c(=O)[nH]cnc23)cc1-c1cnn(Cc2ccccc2)c1 [Compound 28, 8-(3-amino-1′-benzyl-1H,1′H-[4,4′-bipyrazol]-1-yl)pyrido[3,4-d]pyrimidin-4(3H)-one]
20 to 50 | Nc1nn(-c2nccc3c(=O)[nH]cnc23)cc1-c1cnn(CCN2CCOCC2)c1 [Compound 29, 8-(3-amino-1′-(2-morpholinoethyl)-1H,1′H-[4,4′-bipyrazol]-1-yl)pyrido[3,4-d]pyrimidin-4(3H)-one]
20 to 50 | CN1CCN(CCn2cc(-c3cn(-c4nccc5c(=O)[nH]cnc45)nc3N)cn2)CC1 [Compound 30, 8-(3-amino-1′-(2-(4-methylpiperazin-1-yl)ethyl)-1H,1′H-[4,4′-bipyrazol]-1-yl)pyrido[3,4-d]pyrimidin-4(3H)-one]
≥ 50 | Nc1nn(-c2nccc3c(=O)[nH]cnc23)cc1-c1cccc(OCc2ccccc2)c1 [Compound 31, 8-(3-amino-4-(3-(benzyloxy)phenyl)-1H-pyrazol-1-yl)pyrido[3,4-d]pyrimidin-4(3H)-one]
20 to 50 | Nc1nn(-c2nccc3c(=O)[nH]cnc23)cc1-c1cccc(Cl)c1 [Compound 32, 8-(3-amino-4-(3-chlorophenyl)-1H-pyrazol-1-yl)pyrido[3,4-d]pyrimidin-4(3H)-one]

Second part, the molecule before the results:

Compound | inhibition at 0.1 µM [%]
Cc1cccc(-c2cnn(-c3nccc4c(=O)[nH]cnc34)c2)c1 [Compound 1, 8-(4-(m-tolyl)-1H-pyrazol-1-yl)pyrido[3,4-d]pyrimidin-4(3H)-one] | < 20
CN1CCN(Cc2ccc(-c3cnn(-c4nccc5c(=O)[nH]cnc45)c3)cc2)CC1 [Compound 2, 8-(4-(4-((4-methylpiperazin-1-yl)methyl)phenyl)-1H-pyrazol-1-yl)pyrido[3,4-d]pyrimidin-4(3H)-one] | < 20
O=c1[nH]cnc2c(-n3cc(-c4cccc(CO)c4)cn3)nccc12 [Compound 3, 8-(4-(3-(hydroxymethyl)phenyl)-1H-pyrazol-1-yl)pyrido[3,4-d]pyrimidin-4(3H)-one] | < 20
O=c1[nH]cnc2c(-n3cc(-c4ccc(F)cc4)cn3)nccc12 [Compound 4, 8-(4-(4-fluorophenyl)-1H-pyrazol-1-yl)pyrido[3,4-d]pyrimidin-4(3H)-one] | < 20
O=c1[nH]cnc2c(-n3cc(-c4cccc(OCc5ccccc5)c4)cn3)nccc12 [Compound 5, 8-(4-(3-(benzyloxy)phenyl)-1H-pyrazol-1-yl)pyrido[3,4-d]pyrimidin-4(3H)-one] | < 20
CN1CCN(Cc2cccc(-c3cnn(-c4nccc5c(=O)[nH]cnc45)c3)c2)CC1 [Compound 6, 8-(4-(3-((4-methylpiperazin-1-yl)methyl)phenyl)-1H-pyrazol-1-yl)pyrido[3,4-d]pyrimidin-4(3H)-one] | < 20
O=c1[nH]cnc2c(-n3cc(-c4cccc(CCCO)c4)cn3)nccc12 [Compound 7, 8-(4-(3-(3-hydroxypropyl)phenyl)-1H-pyrazol-1-yl)pyrido[3,4-d]pyrimidin-4(3H)-one] | < 20
O=c1[nH]cnc2c(-n3cc(-c4ccccc4CO)cn3)nccc12 [Compound 9, 8-(4-(2-(hydroxymethyl)phenyl)-1H-pyrazol-1-yl)pyrido[3,4-d]pyrimidin-4(3H)-one] | < 20
O=c1[nH]cnc2c(-n3cc(-c4ccccc4Oc4ccccc4)cn3)nccc12 [Compound 10, 8-(4-(2-phenoxyphenyl)-1H-pyrazol-1-yl)pyrido[3,4-d]pyrimidin-4(3H)-one] | < 20
Cn1cc(-c2cnn(-c3nccc4c(=O)[nH]cnc34)c2)cn1 [Compound 11, 8-(1′-methyl-1H,1′H-[4,4′-bipyrazol]-1-yl)pyrido[3,4-d]pyrimidin-4(3H)-one] | < 20
O=c1[nH]cnc2c(-n3cc(-c4cccnc4)cn3)nccc12 [Compound 12, 8-(4-(pyridin-3-yl)-1H-pyrazol-1-yl)pyrido[3,4-d]pyrimidin-4(3H)-one] | < 20
O=c1[nH]cnc2c(-n3cc(-c4cnn(Cc5ccccc5)c4)cn3)nccc12 [Compound 13, 8-(1′-benzyl-1H,1′H-[4,4′-bipyrazol]-1-yl)pyrido[3,4-d]pyrimidin-4(3H)-one] | < 20
Nc1nn(-c2nccc3c(=O)[nH]cnc23)cc1-c1ccc(N2CCNCC2)nc1 [Compound 14, 8-(3-amino-4-(6-(piperazin-1-yl)pyridin-3-yl)-1H-pyrazol-1-yl)pyrido[3,4-d]pyrimidin-4(3H)-one] | 20 to 50
Cn1cc(-c2cn(-c3nccc4c(=O)[nH]cnc34)nc2N)cn1 [Compound 15, 8-(3-amino-1′-methyl-1H,1′H-[4,4'-bipyrazol]-1-yl)pyrido[3,4-d]pyrimidin-4(3H)-one] | 20 to 50
Nc1nn(-c2nccc3c(=O)[nH]cnc23)cc1-c1cccnc1 [Compound 16, 8-(3-amino-4-(pyridin-3-yl)-1H-pyrazol-1-yl)pyrido[3,4-d]pyrimidin-4(3H)-one] | < 20
